*: point of attachment. AMC = Cc1cc(=O)oc2cc(N*)ccc12
Target: T1, SIRT5 (Homo sapiens, UniProt Q9NXA8)
T1 sequence (Q9NXA8 37-310): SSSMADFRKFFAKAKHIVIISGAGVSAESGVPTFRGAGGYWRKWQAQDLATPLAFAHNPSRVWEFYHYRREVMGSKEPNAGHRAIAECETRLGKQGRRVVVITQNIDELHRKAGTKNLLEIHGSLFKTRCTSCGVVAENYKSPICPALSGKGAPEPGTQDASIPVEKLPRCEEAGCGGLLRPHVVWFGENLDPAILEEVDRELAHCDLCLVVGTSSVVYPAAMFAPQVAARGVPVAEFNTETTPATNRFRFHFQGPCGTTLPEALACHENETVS
Assay: SIRT5 desuccinylation/deacetylation of fluorogenic lysyl substrates, trypsin developer
Format: biochemical
Design: purchased Enzo Life Sciences BML-SE555
Conditions: for Dependence of SIRT5 initial rate on substrate concentration: 20 min. at 37° C.
Procedure: FIG. 3 is graphs showing that SIRT5 catalyzes NAD^+-dependent desuccinylation of Ac-Lys(ε-succinyl)-AMC far more efficiently than NAD^+-dependent deacetylation of Ac-Arg-His-Lys-Lys(ε-acetyl)-AMC. Fifty μl reactions in Assay Buffer (50 mM Tris/HCl, pH 8.0, 137 mM NaCl, 2.7 mM KCl, 1 mM MgCl2, 1 mg/ml BSA) included 50 μM of either Ac-Lys(ε-succinyl)-AMC or Ac-Arg-His-Lys-Lys(ε-acetyl)-AMC, and, where indicated, 500 μM NAD^+ and 5 μg recombinant human SIRT5 (Enzo Life Sciences Cat. # BML-SE555). […] AMC fluorescence was read in a Cytofluor II plate-reading fluorimeter (Perseptive Biosystems) at wavelengths 360 nm (excitation)/460 nm (emission), Gain 54. Data represent the mean of two (No Enzyme) or three (+SIRT5) determinations and error bars the standard deviations. Panels A and B present the same data, but with the +SIRT5/+NAD^+/Ac-Lys(ε-succinyl)-AMC bar omitted from B to show the detail on the remaining bars. Statistically significant differences (Student's t-test) are indicated by asterisks as follows: *: p<0.02 vs. corresponding No Enzyme control; **: p<0.001 vs. corresponding −NAD^+ control; ***: p<3×10^−6 vs. both No Enzyme and −NAD^+ controls.
FIG. 4 is a graph showing that Ac-Lys(Succ.)-AMC enables SIRT5 assay at low enzyme concentrations. Fifty μl reactions in Assay Buffer (50 mM Tris/HCl, pH 8.0, 137 mM NaCl, 2.7 mM KCl, 1 mM MgCl2, 1 mg/ml BSA) included 2 or 10 μM Ac-Lys(ε-succinyl)-AMC, 500 μM NAD^+ and, where indicated, 5 ng recombinant human SIRT5 (Enzo Life Sciences Cat. # BML-SE555). […] AMC fluorescence was read in a Synergy 2 plate-reading fluorimeter (BioTek) at wavelengths 360 nm (excitation)/460 nm (emission), Gain 40. Data represent the mean of two (No Enzyme) or three (5 ng SIRT5) determinations and error bars the standard deviations. Statistically significant differences (Student's t-test) are indicated by asterisks as follows: *: p=0.002; **: p=0.009, each with respect to the corresponding “No SIRT5” samples.
FIG. 5 is graphs showing dependence of SIRT5 initial rate kinetics on the concentrations of Ac-Lys(Succ.)-AMC and Ac-Lys(Ac.)-AMC. Fifty μl desuccinylation or deacetylation reactions were performed as described earlier (FIG. 4), with the indicated concentrations of Ac-Lys(Succ.)-AMC or Ac-Lys(Ac.)-AMC and 1 mM NAD^+, for 20 min. at 37° C. Reactions with Ac-Lys(Succ.)-AMC contained 10 ng SIRT5 and those with Ac-Lys(Ac.)-AMC contained 5 SIRT5. Reactions were stopped and AMC cleaved from deacetylated or desuccinylated substrate by trypsin treatment as described earlier (FIG. 4). AMC fluorescence was read in a Synergy 2 plate-reading fluorimeter (BioTek) at wavelengths 360 nm (excitation)/460 nm (emission), Gain 40. Data represent the mean of the differences of three determinations with enzyme (10 ng or 5 SIRT5) from the mean of two no enzyme samples for each substrate concentration. Error bars are the standard deviations from those means. Fluorescence differences were converted to specific activities (pmol/min/μg) by measuring the fluorescence increase due to the addition a standard solution of AMC (5 μl of a […]).
FIG. 6 is a graph showing the dependence of SIRT5 initial rate kinetics of Ac-Lys(Succ.)-AMC desuccinylation on the concentration of NAD^+. Reaction conditions were as described for FIG. 5 but with a constant Ac-Lys(Succ.)-AMC concentration of 0.5 mM and the indicated concentrations of NAD^+. Data analysis and determination of kinetic parameters were as described (FIG. 5).
FIG. 12 is graphs showing that SIRT5 catalyzes NAD^+-dependent desuccinylation of (Ac-Lys(Succ.))2-R110 far more efficiently than NAD^+-dependent deacetylation of (Ac-Lys(Ac.))2-R110. Fifty μl reactions in Assay Buffer (50 mM Tris/HCl, pH 8.0, 137 mM NaCl, 2.7 mM KCl, 1 mM MgCl2, 1 mg/ml BSA) included 50 μM of either (Ac-Lys(Succ.))2-R110 or (Ac-Lys(Ac.))2-R110, and, where indicated, 500 μM NAD^+ and 5 μg recombinant human SIRT5 (Enzo Life Sciences Cat. # BML-SE555). […]

[1] = SIRT5, 50 μM substrate, 500 μM NAD^+

Molecule | Dependence of SIRT5 initial rate on substrate concentration (1 mM NAD^+) | Activity [1] [pmol/min/µg] | Fraction of substrate desuccinylated (5 μg SIRT5 (3 μM in 50 μl), 50 μM substrate, 60 min.) [%] | SIRT5/NAD^+ dependence of desuccinylation (5 μg SIRT5, 50 μM substrate, 500 μM NAD^+, 60 min.) | Desuccinylation relative to deacetylation of Ac-Arg-His-Lys-Lys(ε-acetyl)-AMC (5 μg SIRT5 per 50 μl, 50 μM substrate, 500 μM NAD^+, 60 min.) | kcat (varied substrate: Lysyl, 1 mM NAD^+) [s⁻¹] | kcat (varied substrate: NAD^+, constant 0.5 mM Ac-Lys(Succ.)-AMC) [s⁻¹] | Activity (pmol/min/μg) [1]
CC(=O)NCCCCC(NC(C)=O)C(=O)Nc1ccc2c(C)cc(=O)oc2c1 (stereo not shown) [Ac-Lys(Ac.)-AMC, Ac-Lys(ε-acetyl)-AMC, reference compound] | remains linear over the concentration range of the assay | 0.0174 | – | – | – | – | – | –
CC(=O)N[C@@H](CCCCNC(=O)CCC(=O)O)C(=O)Nc1ccc2c(C)cc(=O)oc2c1 [Compound 1, N—(N^α-acetyl-L-Lysine(N^ε-succinyl))-AMC] | displays saturation kinetics | 115 | ~50 | entirely dependent on the presence of SIRT5 and NAD^+ | at least 250 fold | 0.26 | 0.29 | –
Ac-Arg-His-Lys-Lys(ε-acetyl)-AMC (Ac-RHKK(Ac)-{AMC}; SMILES CC(=O)NCCCC[C@H](NC(=O)[C@H](CCCCN)NC(=O)[C@H](Cc1c[nH]cn1)NC(=O)[C@H](CCCNC(=N)N)NC(C)=O)C(=O)Nc1ccc2c(C)cc(=O)oc2c1) [Ac-RHKK(Ac)-AMC, p53 peptide fluorogenic deacetylase substrate, Cat. # BML-KI177, reference compound] | – | – | – | – | – | – | – | Ac-RHKK(Ac)-AMC/0.364 pmol/min/μg

From patent US10920265B2, “Compounds and methods for detection of enzymes that remove methyl succinyl groups from epsilon-amino lysine moieties” (Enzo Life Sciences, Inc., priority 2011, dated 2021)
